Measurements: article PMC12079500, “An Intracellular Peptide Library Screening Platform Identifies Irreversible Covalent Transcription Factor Inhibitors” (Advanced Science, 2025)
*1 amine or outer side, *2 acyl side, *3 side chain or, on linkers, in order; H or OH if unused. Where a SMILES comes first, the peptide text is derived from it. Bridges are numbered along the chain shown (N, C = ends). [ ]: non-standard residue; d: D form. The star is where a group is joined. Met(S-mXyl) = C[S+](CC[C@H](N[*:1])C(=O)[*:2])Cc1cccc(C[*:3])c1; 5FAM = O=C1OC2(c3ccc(O)cc3Oc3cc(O)ccc32)c2ccc(C(=O)*)cc21

How the values were obtained:
cJun/TRE DNA = target: T1, cJun/TRE DNA (Homo sapiens, UniProt P05412); experiment: CD cJun/TRE DNA antagonism assay (TRE DNA signal at 281 nm); format: biochemical
T1 construct: LC-MS analysis of the cJun bZIP domain; made in house
From the text: CD antagonism experiments were next carried out, as previously described,^[ [13], [18] ^] whereby the structure of a TRE DNA duplex was monitored by following a peak at 281 nm, which shifts upon binding to cJun. The introduction of antagonist to the sample causes the peak to shift back to its unbound signal in a dose‐dependent manner as the cJun is sequestered, leaving unbound DNA in its original structure (Figure S9, Supporting Information). As there is no protein absorbance in this region of the CD spectrum, this measures DNA structure only and produces a simple readout of the proportion of free/cJun‐bound DNA at different antagonist concentrations. By fitting these plots to a Hill equation (OriginPro), IC50 values for HW1, HW29, and HW31 were determined in both reducing and oxidizing conditions (Table S1, Supporting Information; Figure 3C).
Circular dichroism (CD): An Applied Photophysics Chirascan was used for CD measurements, with a 200 µL sample in a 1 mm path length CD cell. Protein/DNA samples were suspended in 20 mM potassium phosphate,150 mM potassium fluoride at pH 7.4 with or without 5 mM TCEP. cJun was added to TRE DNA (5’-[…], Merck) before addition of antagonist peptide and these samples were equilibrated for 30 minutes before measurement.^[13] For full spectra, three scans between 190 and 260 nm (265-320 nm for DNA binding experiments) were collected with a bandwidth of 1 nm and data sampled at a rate of 0.5 s^-1. These scans were averaged and converted to molar residue ellipticities (MRE). Thermal denaturation experiments were performed by measuring the ellipticity at 222 nm over a 1 to 95°C gradient at 1°C increments. Post-melt scans at 20°C confirmed the transitions were reversible as they overlaid within 5% of the pre-melt scan. The resulting thermal denaturation curves were converted to MRE and fitted to a two-state model, derived via modification of the Gibbs–Helmholtz equation to determine the melting temperature (Tm) ^[26].

CREB1 = CREB1 (Homo sapiens, UniProt P16220); experiment: Selectivity: incubation with CREB1 monitored by SDS-PAGE; format: biochemical; settings: HW33 40 µM + CREB1 20 µM, 24 h
Experimental: The selectivity of this reaction, which is highly proximity‐driven, was first investigated by incubating HW33 (40 µM) with CREB1 (20 µM), a closely related bZIP‐containing TF that contains a Cys residue at the same position within the bZIP domain as cJun. Moreover, CREB1 contains two additional Cys residues located within the LZ domain that are not found within cJun. […] To further investigate HW33 selectivity for cJun, a reaction was next undertaken in SK‐MEL‐28 human melanoma cell lysate using FAM‐HW33, in which the N‐terminal acetyl group of HW33 was replaced with carboxyfluorescein to allow for peptide detection (Figure S17, Supporting Information). Samples containing cJun bZIP (20 µM) and FAM‐HW33 (20 µM) were incubated with or without lysate (10 µg) at 37 °C for 4 h before analysis by SDS‐PAGE (Figure 4E). […]
Covalent conjugation assays: Initial tests were performed by incubation of HW32 and HW33 (40 µM) with cJun bZIP (20 µM) in 50 mM potassium phosphate butter, 150 mM NaCl, pH 7.4 at 37°C, shaking at 450 rpm. […] The samples were analysed by LC-MS on a Luna C18(2) column (5-μm particle size, 100 Å pore size, 150 × 4.6 mm; Phenomenex). The % occupancy was determined by the ratio of conjugated cJun over total cJun as determined by the area under the peaks in the chromatogram measured at a 215 nm wavelength, with their identity confirmed by ESI-MS. […]

cJun/FAM-TRE DNA = target: T2, cJun/FAM-TRE DNA (Homo sapiens, UniProt P05412); experiment: Fluorescence polarisation cJun/FAM-TRE DNA antagonism time course; format: biochemical; settings: 10 nM FAM-TRE, 625 nM cJun, peptide 10000-20 nM, 5 mM TCEP, pH 7.4; quadruplicate
T2 construct: LC-MS analysis of the cJun bZIP domain; made in house

SK-MEL-28 cells [1] = experiment: Cell imaging of FAM-peptide uptake; format: cell-based, human; settings: SK-MEL-28, 10 and 30 µM, 6 h, 37 °C, fixed, DAPI counterstain, fluorescence microscopy
Experimental: Cell imaging: Cells were seeded at 40,000 cells per well in a […] and incubated for 24 hours before treatment with vehicle (1% DMSO in water) or peptide for 6 hours. The media was removed and the cells were washed 3x with PBS. 1 mL of paraformaldehyde (80 mg/mL in PBS) was added and incubated at room temperature for 10 minutes. The paraformaldehyde was removed and fixed cells were washed with 3x PBS. 500 µL of DAPI (1 µg/mL) was then added and incubated at room temperature for 5 minutes following by a 3x PBS wash. Cells were imaged using an Evos FL digital inverted fluorescence microscope using brightfield and both GFP (for the FAM label) and DAPI fluorescence filters.

SK-MEL-28 cells [2] = experiment: MTT cell viability assay; format: cell-based, human; settings: SK-MEL-28, 30 µM
Experimental: Cell viability assay: Cells were seeded at 15,000 cells per well in a 96-well plate and incubated for 24 hours before treatment with vehicle (1% DMSO in water) or peptide for 6 or 24 hours. The media was removed and the cells were washed twice with PBS before 50 µL of MTT (1 mg/mL in PBS, Merck) was added and incubated at 37°C for 30 minutes. The MTT solution was removed and 100 µL isopropanol was added to each well and rocked at room temperature for 5 minutes. Absorbance at 595 nm was measured using a Clariostar plate reader. Unless otherwise stated, all data are reported as an average of three independent biological experiments, with each data point determined in triplicate (i.e. 9 measurements) and reported as the mean with errors given as one standard deviation. For data with one independent measurement, each data point was determined in triplicate i.e. 3 measurements and reported as the mean with errors given as one standard deviation.

cJun = cJun (Homo sapiens, UniProt P05412); experiment: Western blot of cJun levels in cell lysate after peptide addition; format: biochemical; set-up: endogenous in cells; host or cells: SK-MEL-28; settings: SK-MEL-28 cell lysate with protease inhibitor cocktail, 30 µM peptide, 37 °C, 5 mM TCEP, pH 7.4, western blot over time
Experimental: Figure S25 – cJun protein levels in SK-MEL-28 cell lysate (with the addition of Roche cOmplete protease inhibitor cocktail) upon addition of 30 µM FAM-HW33-NLSTAT, determined over time by western blot. Cells were lysed by sonication in 20 mM KP, 150 mM NaCl, 5 mM TCEP, pH 7.4 and incubated at 37°C after peptide addition. Uncropped blots are also shown.

T1 sequence (P05412 252-315 limits assumed): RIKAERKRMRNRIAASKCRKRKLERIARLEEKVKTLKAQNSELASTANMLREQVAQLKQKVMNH
CREB1, sequence (P16220 whole entry, species assumed, the tested form may be a part): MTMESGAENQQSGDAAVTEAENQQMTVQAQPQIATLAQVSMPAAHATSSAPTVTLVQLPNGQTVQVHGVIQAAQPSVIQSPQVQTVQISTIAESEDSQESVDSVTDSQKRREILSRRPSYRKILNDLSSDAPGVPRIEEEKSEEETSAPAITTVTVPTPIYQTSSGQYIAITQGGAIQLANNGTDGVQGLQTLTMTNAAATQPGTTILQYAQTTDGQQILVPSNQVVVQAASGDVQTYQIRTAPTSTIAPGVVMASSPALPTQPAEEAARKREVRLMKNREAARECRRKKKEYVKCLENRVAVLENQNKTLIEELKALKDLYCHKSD
T2 sequence (P05412 252-315 limits assumed): as the sequence (P05412 252-315 limits assumed) above
cJun, sequence (P05412 whole entry): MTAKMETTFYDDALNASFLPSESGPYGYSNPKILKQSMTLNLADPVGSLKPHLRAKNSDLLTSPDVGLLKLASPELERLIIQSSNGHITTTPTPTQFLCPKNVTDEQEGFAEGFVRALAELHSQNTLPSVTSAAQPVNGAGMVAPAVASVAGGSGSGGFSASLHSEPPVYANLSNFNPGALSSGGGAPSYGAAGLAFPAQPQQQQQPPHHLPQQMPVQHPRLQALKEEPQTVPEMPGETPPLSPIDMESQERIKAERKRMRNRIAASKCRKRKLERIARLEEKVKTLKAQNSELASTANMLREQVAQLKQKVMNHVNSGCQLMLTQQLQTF

| Compound | Fold increase in antagonism over the 4 h time course (cJun/TRE DNA; CD antagonism time course) [fold] | Time dependence of CD antagonism compared with HW1 (cJun/TRE DNA; IC50 plotted over time) | Conjugation with CREB1 (CREB1) | Time dependence of FP antagonism compared with HW1 (cJun/FAM-TRE DNA) | Cellular uptake (FAM fluorescence within cells) (SK-MEL-28 cells [1]) | Fold larger reduction in cell viability relative to HW1 (SK-MEL-28 cells [2]) [x] | cJun depletion in cell lysate (cJun) |
| --- | --- | --- | --- | --- | --- | --- | --- |
| CC[C@H](C)[C@H](NC(=O)[C@H](CCC(=O)O)NC(=O)[C@H](CCCCN)NC(=O)[C@H](CCCNC(=N)N)NC(=O)[C@H](CC(C)C)NC(=O)[C@H](C)NC(=O)[C@H](Cc1ccc(O)cc1)NC(=O)[C@H](CC(N)=O)NC(=O)[C@H](CCCNC(=N)N)NC(=O)[C@H](CCC(=O)O)NC(=O)[C@H](CCC(=O)O)NC(=O)[C@H](CC(C)C)NC(=O)[C@H](CCC(N)=O)NC(=O)[C@H](CCC(=O)O)NC(=O)[C@@H](NC(=O)[C@H](CCC(=O)O)NC(=O)[C@H](CCC(=O)O)NC(=O)[C@H](CCC(=O)O)NC(=O)[C@H](CC(C)C)NC(=O)[C@@H](NC(=O)[C@H](CC(=O)O)NC(=O)[C@H](CCC(=O)O)NC(=O)[C@H](CCC(=O)O)NC(=O)[C@@H](NC(=O)[C@@H]1CSCc2cccc(c2)C[S+](C)CC[C@H](NC(=O)[C@H](CCC(=O)O)NC(C)=O)C(=O)N[C@@H](CCC(=O)O)C(=O)N[C@@H](CCC(=O)O)C(=O)N[C@@H](CC(C)C)C(=O)N1)C(C)C)C(C)C)[C@@H](C)CC)C(=O)N[C@H]1CCCCNC(=O)C[C@@H](C(=O)N[C@@H](CCC(N)=O)C(N)=O)NC(=O)[C@H](CCC(N)=O)NC(=O)[C@H](CC(C)C)NC(=O)[C@H](CC(=O)O)NC1=O (stereo partly shown) [HW33] (Ac-E[Met(S-mXyl)]EELCVEEDVLEEEIEQLEERNYALRKEIKDLQDQ-NH2; thioether 2-6; lactam 31-35) | 5 | improved antagonism over HW1 after 60 min | no conjugation observed | improved antagonism over HW1 after 240 minutes | – | – | – |
| 5FAM-E[Met(S-mXyl)]EELCVEEDVLEEEIEQLEERNYALRKEIKDLQDQPKKKRKVYGRKKRRQRRR-NH2 (thioether 2-6; lactam 31-35) [FAM-HW33-NLSTAT] | – | – | – | – | FAM fluorescence was observed within the cells | 2.2 | cJun depletion effect was also observed in cell lysate |
